In general, IC50 refers to the concentration needed to halve the response being measured. In general, Ki refers to a dissociation constant, usually derived from enzyme kinetics or from competition with a known ligand.

Like-named read-outs stand apart in the source and are kept apart here.

The source of these data is article PMC11477134 (International Journal of Molecular Sciences, 2024).

Details of series [1]: method as in PMID 29925102. Conditions: use of honokiol or herbal formulations containing it; cited from earlier work.
In series [2] the target is T1, hGSK-3β (Homo sapiens, UniProt P49841).
T1 construct: purchased Promega (Madison, WI, USA)
T1 sequence (P49841 whole entry): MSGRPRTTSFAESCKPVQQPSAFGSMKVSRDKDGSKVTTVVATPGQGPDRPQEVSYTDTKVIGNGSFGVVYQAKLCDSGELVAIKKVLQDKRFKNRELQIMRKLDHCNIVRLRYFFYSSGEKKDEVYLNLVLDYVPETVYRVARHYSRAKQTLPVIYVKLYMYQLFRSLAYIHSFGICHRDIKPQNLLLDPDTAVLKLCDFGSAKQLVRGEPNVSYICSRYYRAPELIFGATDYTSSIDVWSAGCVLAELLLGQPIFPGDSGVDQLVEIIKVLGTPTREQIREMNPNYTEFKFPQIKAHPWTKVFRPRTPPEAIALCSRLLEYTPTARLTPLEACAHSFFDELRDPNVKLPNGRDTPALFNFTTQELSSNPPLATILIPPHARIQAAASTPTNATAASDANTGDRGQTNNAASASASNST
As to the kind of experiment: hGSK-3β activity (ADP-Glo/Kinase-Glo assay) and enzyme kinetics. In kind it is biochemical. How it is done:
Inhibition of hGSK-3β activity was evaluated using the Kinase-Glo assay. To initiate the reaction, test compound and hGSK-3β (20 ng) were added to each well of a 384-well black plate, followed by the addition of 20 μL of assay buffer containing GSM (hGSK-3β substrate peptide, 25 μM) and ATP (final concentration, 1 μM). […] The reaction mixture was then incubated at 37 °C for 30 min, followed by the addition of the ADP-GloTM reagent (20 μL) to terminate the enzymatic reaction and deplete the remaining ATP. The kinase detection reagent was added to the well plate and glow-type luminescence was recorded using a Synergy H1 microplate reader.
(§1) Dixon plots were obtained in the presence of different concentrations of substrates for AD-related target enzymes. Michaelis–Menten and Lineweaver–Burk plots were constructed in the absence or presence of various concentrations of honokiol. The Enzyme Kinetic™ module of SigmaPlot™ version 12.3 (Systat Software, Inc., San Jose, CA, USA) was used to calculate kinetic parameters, such as the Ki, Vmax, and Km.
(In ADP-Glo the light output rises with the ADP produced.)

The target in series [3] is T2, hBACE1 (Homo sapiens, UniProt P56817).
T2 construct: purchased Invitrogen (Pan Vera, Madison, WI, USA)
T2 sequence (P56817 46-501): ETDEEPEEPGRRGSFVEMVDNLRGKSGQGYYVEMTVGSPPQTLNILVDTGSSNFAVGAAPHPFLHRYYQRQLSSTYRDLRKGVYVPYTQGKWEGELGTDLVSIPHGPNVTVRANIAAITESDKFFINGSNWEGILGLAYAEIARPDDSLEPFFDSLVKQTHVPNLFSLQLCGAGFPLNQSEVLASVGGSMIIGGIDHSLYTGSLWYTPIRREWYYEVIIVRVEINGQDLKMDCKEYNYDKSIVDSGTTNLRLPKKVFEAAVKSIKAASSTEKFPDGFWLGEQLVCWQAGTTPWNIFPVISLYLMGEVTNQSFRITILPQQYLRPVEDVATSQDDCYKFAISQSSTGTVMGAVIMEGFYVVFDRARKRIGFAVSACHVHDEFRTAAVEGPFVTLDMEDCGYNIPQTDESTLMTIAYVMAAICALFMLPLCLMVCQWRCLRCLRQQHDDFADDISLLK
The series can be described thus: hBACE1 inhibitory activity (FRET assay) and enzyme kinetics. In kind it is biochemical. How it is done:
The FRET-based assay was used to evaluate the anti-hBACE1 activity and was performed according to the manufacturer’s instructions. […] The percentage BACE1 inhibitory activity was calculated using the following formula:Inhibition (%) = [1 − (S − S0)/(C − C0)] × 100(1) where C is the control fluorescence without the sample after 60 min of incubation, C0 is the control fluorescence at time 0, S is the test sample fluorescence after 60 min of incubation, and S0 is the test sample fluorescence at time 0.
(§2) Dixon plots were obtained in the presence of different concentrations of substrates for AD-related target enzymes. Michaelis–Menten and Lineweaver–Burk plots were constructed in the absence or presence of various concentrations of honokiol.

In series [4] the target is T3, hQC (Homo sapiens, UniProt Q16769).
T3 construct: purchased R&D Systems (Minneapolis, MN, USA)
T3 sequence (Q16769 29-361): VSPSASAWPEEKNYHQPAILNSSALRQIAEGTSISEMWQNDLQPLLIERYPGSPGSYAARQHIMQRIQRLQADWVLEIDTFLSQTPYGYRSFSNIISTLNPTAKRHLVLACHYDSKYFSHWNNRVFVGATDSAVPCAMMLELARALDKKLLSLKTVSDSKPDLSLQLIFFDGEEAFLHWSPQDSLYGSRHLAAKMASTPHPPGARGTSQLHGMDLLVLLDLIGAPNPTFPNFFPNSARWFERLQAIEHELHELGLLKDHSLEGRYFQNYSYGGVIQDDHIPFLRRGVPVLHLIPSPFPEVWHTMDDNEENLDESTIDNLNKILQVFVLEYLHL
The series can be described thus: hQC inhibitory activity (fluorometric assay) and enzyme kinetics. In kind it is biochemical. On the procedure: The inhibitory activity of hQC was evaluated using H-Gln-AMC hydrobromide (400 μM) as the substrate in a fluorometric assay. The buffer consisted of 25 mM HEPES (pH 7.0; adjusted with HCl). The hQC (10 μg/mL) and its auxiliary enzyme pGAPase (50 units) were pre-diluted 1:250 in HEPES. A typical reaction mixture consisted of the substrate, test compounds, and pGAPase. After incubation in black 96-well plates for 10 min at 37 °C, the reaction was initiated by adding hQC solution. The fluorescence intensity of the samples was measured at excitation/emission wavelengths of 380/460 nm, which correlated with the amount of AMC, the end product of the enzymatic process.
as §1

Series [5] has as its target AChE (Homo sapiens, UniProt P22303). The note with it: Dixon and Lineweaver–Burk plots. On the procedure: The AChE inhibitory activity was measured spectrophotometrically using the modified Ellman method. First, AChE (0.8 U/mL) was added to a mixture containing sodium phosphate buffer (0.1 M; pH 8.0), DTNB (5 mM), and a test sample, followed by incubation at 37 °C for 15 min in 96-well microplates. Next, ACTI (500 µM; substrate for AChE) was added to the mixture to activate the reaction.
as §2

In series [6] the target is Aβ1-42 (Homo sapiens, UniProt P05067). As to the kind of experiment: Anti-Aβ1-42 aggregation (preliminary study). It is filed as biochemical. The note with it: compared with honokiol.
Chain of Aβ1-42 (P05067 672-713 limits assumed): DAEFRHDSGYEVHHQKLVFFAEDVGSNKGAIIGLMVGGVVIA
Setting [7] is: Dixon and Lineweaver–Burk plots.
The mark [8] stands for this setting: mean ± S.D. of triplicate experiments, read-out: IC50 hGSK-3β.
Setting [9] is: mean ± S.D. of triplicate experiments, read-out: IC50 hQC.

Chain of AChE (P22303 32-614): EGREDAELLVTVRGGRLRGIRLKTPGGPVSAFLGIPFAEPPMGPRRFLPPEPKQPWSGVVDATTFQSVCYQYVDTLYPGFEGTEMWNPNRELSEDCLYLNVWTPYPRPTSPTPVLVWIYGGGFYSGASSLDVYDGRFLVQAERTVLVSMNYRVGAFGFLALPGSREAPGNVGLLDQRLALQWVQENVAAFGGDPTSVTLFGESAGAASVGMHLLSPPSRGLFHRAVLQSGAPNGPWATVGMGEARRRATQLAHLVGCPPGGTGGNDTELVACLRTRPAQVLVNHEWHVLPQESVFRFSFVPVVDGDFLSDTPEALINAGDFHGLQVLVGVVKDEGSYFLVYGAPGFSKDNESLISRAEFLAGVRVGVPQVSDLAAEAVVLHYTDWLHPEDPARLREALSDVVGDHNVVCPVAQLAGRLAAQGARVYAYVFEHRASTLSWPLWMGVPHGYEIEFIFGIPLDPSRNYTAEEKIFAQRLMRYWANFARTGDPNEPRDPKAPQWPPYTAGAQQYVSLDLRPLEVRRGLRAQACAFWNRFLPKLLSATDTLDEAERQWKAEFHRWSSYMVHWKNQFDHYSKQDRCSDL

`C=CCc1ccc(O)c(-c2ccc(O)c(CC=C)c2)c1` [Honokiol (39), 3,5′-diallyl-4,2′-dihydroxybiphenyl]: in series [1], the “side effects in humans” value is reported as “no side effects have been reported in humans”. For the same molecule, the results for the IC50 in series [2], in series [3] and in series [4] were 6.7 ± 0.03 µM, 20.6 ± 0.8 µM and 90.7 ± 1.07 µM, respectively. The Ki stood at 9.8 µM in series [2], 27.3 µM in series [3] and 49.4 µM in series [4]. The “Inhibition Mode hGSK-3β” value in series [2] (setting [7]) is given as “Non-competitive”. Moreover, the “Inhibition Mode hBACE1” value in series [3] (setting [7]) is reported as “Non-competitive”. In series [4] (setting [7]), the “Inhibition Mode hQC” value was “Competitive”. Also, the “Inhibition Mode AChE” value in series [5] is listed as “Non-competitive”.

`C=CCc1ccc(O)c(-c2cc(CC=C)ccc2O)c1` [Magnolol (51), 5,5′-diallyl-2,2′-dihydroxybiphenyl]: the IC50 is over 100 µM in series [2] (setting [8]); over 100 µM in series [3] (mean ± S.D. of triplicate experiments, read-out: IC50 hBACE1); over 100 µM in series [4] (setting [9]). For the same molecule, the anti-Aβ1-42 aggregation effects result in series [6] is “lower anti-Aβ1-42 aggregation effects than that of honokiol”.

For the molecule `Oc1ccc(/C=C/c2cc(O)cc(O)c2)cc1` [resveratrol, reference compound], the IC50 in series [4] (setting [9]) came to 30.9 µM.

In the case of `C[C@@H]1O[C@@H](OC[C@H]2O[C@@H](Oc3c(-c4ccc(O)c(O)c4)oc4cc(O)cc(O)c4c3=O)[C@H](O)[C@@H](O)[C@@H]2O)[C@H](O)[C@H](O)[C@H]1O` [rutin, reference compound], in series [2] (setting [8]), the IC50 was 10.8 µM.
